pIC50: −log10 of the molar value. Like-named read-outs stand apart in the source and are kept apart here.

Experimental findings from EP4813991A1 (iLeadBMS Co., Ltd., priority 2023, dated 2025) are described below.

For assay [1], the target named is T1, CDK12 (Homo sapiens, UniProt Q9NYV4). The assay can be described thus: CDK12 kinase inhibitory activity assay (33P-ATP filter binding). Particulars: kinase reaction 120 minutes, 33P-gamma-ATP; read-out: CDK12 IC50. The assay is classed as biochemical. The procedure: (§1) Before initiating the CDK12 and CDK13 kinase reactions, each Example compound was dissolved and diluted in DMSO as a solvent across 9 concentration ranges at room temperature. The diluted solutions were then incubated with a mixture of kinase and substrate (and cofactors, if required) for 20 minutes. Next, radioisotope-labeled ATP (^33P-gamma-ATP) was added to proceed with the kinase reaction at room temperature for 120 minutes. After the reaction was completed, the reaction mixture was transferred to a filter paper that binds the radioisotope-labeled catalytic product (^33P-substrate). Unreacted ^33P-ATP was removed by washing with 0.75 % phosphoric acid, and then the radioactive phosphorylated substrate remaining on the filter paper was measured. Kinase activity data were expressed as a percentage of the kinase activity remaining in the test sample compared to a DMSO control group. The half-maximal inhibitory concentration (IC50) for each kinase was calculated using Prism (Graphpad) software.
T1 sequence (Q9NYV4 whole entry, species assumed): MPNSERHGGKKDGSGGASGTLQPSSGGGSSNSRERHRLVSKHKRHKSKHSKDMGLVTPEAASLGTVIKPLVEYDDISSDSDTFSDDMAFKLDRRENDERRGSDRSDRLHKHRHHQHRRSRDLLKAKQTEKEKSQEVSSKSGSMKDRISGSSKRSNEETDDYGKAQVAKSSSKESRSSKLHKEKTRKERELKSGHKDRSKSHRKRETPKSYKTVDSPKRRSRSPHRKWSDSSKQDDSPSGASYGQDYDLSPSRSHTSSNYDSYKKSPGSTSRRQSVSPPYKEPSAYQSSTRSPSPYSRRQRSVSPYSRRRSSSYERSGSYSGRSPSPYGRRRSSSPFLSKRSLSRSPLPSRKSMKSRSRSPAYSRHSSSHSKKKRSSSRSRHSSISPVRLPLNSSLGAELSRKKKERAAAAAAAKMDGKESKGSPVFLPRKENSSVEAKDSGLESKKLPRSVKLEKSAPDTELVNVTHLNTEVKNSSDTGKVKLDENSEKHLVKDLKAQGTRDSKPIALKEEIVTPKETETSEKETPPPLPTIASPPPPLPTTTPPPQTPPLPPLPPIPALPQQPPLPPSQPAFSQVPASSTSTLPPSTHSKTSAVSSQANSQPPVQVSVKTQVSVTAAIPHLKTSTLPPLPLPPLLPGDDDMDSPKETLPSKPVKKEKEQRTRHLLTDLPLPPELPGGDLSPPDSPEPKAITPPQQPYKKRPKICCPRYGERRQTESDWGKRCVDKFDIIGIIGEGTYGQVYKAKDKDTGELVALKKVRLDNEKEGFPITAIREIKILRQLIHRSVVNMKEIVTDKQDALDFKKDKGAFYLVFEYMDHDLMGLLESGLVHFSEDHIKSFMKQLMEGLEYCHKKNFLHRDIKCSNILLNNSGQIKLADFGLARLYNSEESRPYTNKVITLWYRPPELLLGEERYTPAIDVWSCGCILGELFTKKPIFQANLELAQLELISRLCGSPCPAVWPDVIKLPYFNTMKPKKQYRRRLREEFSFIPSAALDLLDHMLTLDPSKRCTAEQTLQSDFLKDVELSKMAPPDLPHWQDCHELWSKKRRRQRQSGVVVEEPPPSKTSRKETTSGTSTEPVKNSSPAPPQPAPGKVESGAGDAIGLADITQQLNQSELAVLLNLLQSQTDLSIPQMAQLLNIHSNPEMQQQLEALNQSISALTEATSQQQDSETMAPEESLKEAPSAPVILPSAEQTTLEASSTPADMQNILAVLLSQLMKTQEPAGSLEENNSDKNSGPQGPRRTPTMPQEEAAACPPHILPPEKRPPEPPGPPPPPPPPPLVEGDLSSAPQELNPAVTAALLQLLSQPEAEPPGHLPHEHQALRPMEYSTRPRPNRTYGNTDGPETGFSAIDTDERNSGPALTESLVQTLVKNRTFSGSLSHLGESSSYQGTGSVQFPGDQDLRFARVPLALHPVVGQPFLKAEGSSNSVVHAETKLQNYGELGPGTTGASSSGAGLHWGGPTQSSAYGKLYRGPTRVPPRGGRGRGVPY
T1 sequence (O75909 whole entry partner, species assumed): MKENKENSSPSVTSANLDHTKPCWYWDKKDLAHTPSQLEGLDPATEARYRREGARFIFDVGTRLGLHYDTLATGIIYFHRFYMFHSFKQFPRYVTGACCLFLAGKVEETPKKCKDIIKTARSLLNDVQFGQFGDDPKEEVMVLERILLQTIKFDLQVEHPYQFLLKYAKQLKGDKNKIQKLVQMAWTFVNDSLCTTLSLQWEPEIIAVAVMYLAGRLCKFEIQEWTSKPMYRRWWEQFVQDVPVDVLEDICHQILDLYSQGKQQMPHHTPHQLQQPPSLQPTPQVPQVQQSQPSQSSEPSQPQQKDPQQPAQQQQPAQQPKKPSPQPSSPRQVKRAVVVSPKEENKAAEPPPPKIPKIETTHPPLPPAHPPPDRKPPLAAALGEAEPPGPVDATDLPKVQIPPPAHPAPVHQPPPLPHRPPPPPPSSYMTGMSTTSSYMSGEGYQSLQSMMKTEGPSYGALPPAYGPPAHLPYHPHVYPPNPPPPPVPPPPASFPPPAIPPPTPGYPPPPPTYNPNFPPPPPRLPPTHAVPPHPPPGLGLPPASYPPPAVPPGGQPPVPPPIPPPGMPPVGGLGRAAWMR

The target in assay [2] is CDK13 (Homo sapiens, UniProt Q14004). Put plainly: CDK13 kinase inhibitory activity assay (33P-ATP filter binding). The assay is classed as biochemical. The procedure:
as §1

Assay [3] deals with MDA-MB-231 breast cancer cells. The assay can be described thus: Proliferation inhibitory activity assay against MDA-MB-231 breast cancer cells. The assay is classed as cell-based. Particulars: Homo sapiens, 72 hours, CellTiter Glo, relative IC50. The procedure: Experiments were performed using the MDA-MB-231 breast cancer cell line to measure the cell proliferation inhibitory ability of each Example compound. MDA-MB-231 cells were dispensed into a 96-well plate at 100 µL of cell suspension per well using L-15 (Invitrogen) medium containing 10 % FBS, followed by incubation in a cell incubator at 37 °C and 0 % CO2. The next day, each Example compound dissolved and diluted in DMSO across 9 concentration ranges and a DMSO control group were treated on the cells for 72 hours. After the compound treatment was completed, 100 µL of CellTiter Glo (Promega) reagent was added to each well of the 96-well plate, followed by shaking for 10 minutes and standing at room temperature for 10 minutes. Luminescence signals were measured after inserting the 96-well plate into an Envision plate reader (PerkinElmer). Relative IC50 values were calculated by fitting a dose-response curve using XLfit (IDBS Ltd) software.
The breast cancer cell proliferation inhibitory activities of the Example compounds measured by the above method were evaluated according to the following criteria, and the results are presented in Table 13.

Assay [4] has as its target T1, CDK12. The assay can be described thus: Cellular CDK12 inhibitory activity assay (Ser2 phosphorylation of RNA polymerase II subunit B1 CTD in MDA-MB-231 cells). The assay is classed as cell-based. Also on record: using MDA-MB-231 breast cancer cells; endogenous in cells; host or cells: MDA-MB-231. Particulars: MDA-MB-231 cells, 6 hours treatment; read-out: pRpbl CTD S2 IC50. On the procedure:
MDA-MB-231 cells were dispensed into a 96-well plate at 100 µL of cell suspension per well using L-15 (Invitrogen) medium containing 10 % FBS, followed by overnight incubation in a cell incubator at 37 °C and 0 % CO2. The next day, each Example compound dissolved in DMSO across 9 concentration ranges and a DMSO control group were treated on the MDA-MB-231 cells at 37 °C and 0 % CO2 for 6 hours. After the compound treatment, the medium in the 96-well plate was removed, and 60 µL of a fixing solution (4.0 % paraformaldehyde in PBS) was added to each well, followed by standing for 20 minutes. After removing the fixing solution and washing with PBS, 60 µL of PBS containing 0.1 % Triton X-100 was dispensed into each well, followed by shaking at room temperature for 15 minutes. After washing with PBS, 100 µL of blocking buffer was added, followed by shaking at room temperature for 1 hour. After removing the blocking buffer, primary antibodies, which are RNA polymerase II subunit B1 phospho-Ser2 (1:500, Cell signaling technology) and RNA polymerase II subunit B1 carboxy-terminal domain (1:200, Cell signaling technology), were added at 60 µL per well and reacted overnight at 4 °C. After adding 150 µL of PBS containing 0.1 % Triton X-100 and washing at least twice by shaking at room temperature for 5 minutes, 60 µL of a secondary antibody was added, followed by shaking at room temperature for 1 hour while blocking light. After adding 150 µL of PBS containing 0.1 % Triton X-100 and washing at least twice by shaking at room temperature for 5 minutes, 150 µL of PBS was added again, followed by washing at least twice by shaking at room temperature for 5 minutes. The plate was scanned using a Li-COR Odyssey machine with the wells filled with PBS. IC50 values were calculated by fitting a dose-response curve using a 4-parameter model of Prism (Graphpad) software.

Where [5] appears, read: kinase reaction 120 minutes, 33P-gamma-ATP, read-out: CDK13 IC50.

Chain of CDK13 (Q14004 whole entry, species assumed): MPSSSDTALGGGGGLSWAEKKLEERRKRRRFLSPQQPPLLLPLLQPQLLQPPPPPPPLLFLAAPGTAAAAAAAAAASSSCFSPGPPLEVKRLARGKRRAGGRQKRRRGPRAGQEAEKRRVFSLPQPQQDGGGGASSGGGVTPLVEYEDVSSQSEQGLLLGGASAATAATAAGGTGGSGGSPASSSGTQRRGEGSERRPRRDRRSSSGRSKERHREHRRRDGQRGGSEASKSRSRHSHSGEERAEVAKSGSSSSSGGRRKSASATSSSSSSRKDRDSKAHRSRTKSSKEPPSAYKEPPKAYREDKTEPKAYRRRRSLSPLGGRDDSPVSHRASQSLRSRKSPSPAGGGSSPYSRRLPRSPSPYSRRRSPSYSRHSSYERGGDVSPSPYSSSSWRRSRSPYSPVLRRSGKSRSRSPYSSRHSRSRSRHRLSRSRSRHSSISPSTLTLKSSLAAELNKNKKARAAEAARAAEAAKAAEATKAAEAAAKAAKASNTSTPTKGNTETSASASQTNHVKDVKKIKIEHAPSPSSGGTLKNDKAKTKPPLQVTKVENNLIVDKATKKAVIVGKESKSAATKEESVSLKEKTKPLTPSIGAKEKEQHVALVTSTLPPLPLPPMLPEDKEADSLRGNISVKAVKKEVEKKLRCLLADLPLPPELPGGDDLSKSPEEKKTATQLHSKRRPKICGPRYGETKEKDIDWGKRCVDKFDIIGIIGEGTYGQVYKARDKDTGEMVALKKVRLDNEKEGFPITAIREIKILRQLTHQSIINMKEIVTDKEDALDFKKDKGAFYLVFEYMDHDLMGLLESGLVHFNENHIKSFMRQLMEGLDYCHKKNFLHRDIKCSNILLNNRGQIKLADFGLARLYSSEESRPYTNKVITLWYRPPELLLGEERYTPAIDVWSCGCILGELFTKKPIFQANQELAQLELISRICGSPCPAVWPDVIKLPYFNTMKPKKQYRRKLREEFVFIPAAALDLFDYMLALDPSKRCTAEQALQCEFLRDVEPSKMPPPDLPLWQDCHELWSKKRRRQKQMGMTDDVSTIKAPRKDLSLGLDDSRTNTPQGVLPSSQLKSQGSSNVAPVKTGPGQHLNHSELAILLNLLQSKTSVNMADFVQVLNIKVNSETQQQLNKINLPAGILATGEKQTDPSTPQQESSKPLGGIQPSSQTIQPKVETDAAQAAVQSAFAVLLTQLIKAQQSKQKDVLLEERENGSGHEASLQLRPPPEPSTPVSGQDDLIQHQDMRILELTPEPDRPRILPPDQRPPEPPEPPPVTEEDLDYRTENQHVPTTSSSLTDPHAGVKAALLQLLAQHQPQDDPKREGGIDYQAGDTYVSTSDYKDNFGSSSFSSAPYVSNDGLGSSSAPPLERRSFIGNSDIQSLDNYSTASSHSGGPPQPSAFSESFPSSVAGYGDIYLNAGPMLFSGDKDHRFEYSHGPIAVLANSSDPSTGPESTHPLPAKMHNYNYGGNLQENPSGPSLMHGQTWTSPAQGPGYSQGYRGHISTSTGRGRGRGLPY
Chain of CDK13 (O75909 whole entry partner, species assumed): as the sequence (O75909 whole entry partner, species assumed) above

Take `FC(F)(F)c1cnc2c(NCc3nc4ccncc4[nH]3)cc(N3CCOCC3)nn12` [Example 74, N-((3H-imidazo[4,5-c]pyridin-2-yl)methyl)-6-morpholino-3-(trifluoromethyl)imidazo[1,2-b]pyridazin-8-amine]: the pIC50 in assay [1] is greater than 7.00; in assay [2] (setting [5]), greater than 7.00; in assay [3] it was 6.30 to 7.30; in assay [4] it was 5.52 to 6.52.
`OC1CC2CCC(C1)N2c1cc(NCc2nc3cc(Cl)c(Cl)cc3[nH]2)c2ncc(C(F)(F)F)n2n1` (stereo not shown) [Example 101, 8-(8-(((5,6-dichloro-1H-benzo[d]imidazol-2-yl)methyl)amino)-3-(trifluoromethyl)imidazo[1,2-b]pyridazin-6-yl)-8-azabicyclo[3.2.1]octan-3-ol]: the pIC50 in assay [1] was 6.30 to 7.00; in assay [2] (setting [5]), greater than 7.00; in assay [3], no less than 7.30; in assay [4], greater than 6.52.
Take `FC(F)(F)c1cnc2c(NCc3cc4ccccn4n3)cc(N3CCOCC3)nn12` [Example 86, 6-morpholino-N-(pyrazolo[1,5-a]pyridin-2-ylmethyl)-3-(trifluoromethyl)imidazo [1,2-b]pyridazin-8-amine]: the pIC50 in assay [1] is greater than 7.00; in assay [2] (setting [5]) it was greater than 7.00; in assay [3], less than 6.30; in assay [4], 5.52 to 6.52.
Consider `NC(=O)C1CN(c2cc(NCc3nc4cc(Cl)c(Cl)cc4[nH]3)c3ncc(C(F)(F)F)n3n2)C1` [Example 65, 1-(8-(((5,6-dichloro-1H-benzo[d]imidazol-2-yl)methyl)amino)-3-(trifluoromethyl)imidazo[1,2-b]pyridazin-6-yl)azetidine-3-carboxamide], for which the negative logarithm of the IC50 (pIC50) was greater than 7.00 in assay [1], greater than 7.00 in assay [2] (setting [5]), 6.30 to 7.30 in assay [3] and greater than 6.52 in assay [4].
For `Fc1ccc2nc(CNc3cc(N4CCOCC4)nn4c(CC(F)(F)F)cnc34)[nH]c2c1F` [Example 2, N-((6,7-difluoro-1H-benzo[d]imidazol-2-yl)methyl)-6-morpholino-3-(2,2,2-trifluoroethyl)imidazo[1,2-b]pyridazin-8-amine], the pIC50 is 6.30 to 7.00 in assay [1], 6.30 to 7.00 in assay [2], 6.30 to 7.30 in assay [3] and 5.52 to 6.52 in assay [4].
Turning to `Nc1ncc(-c2cc(NCc3nc4cc(F)c(F)cc4[nH]3)c3ncc(C(F)(F)F)n3n2)cn1` [Example 113, 6-(2-aminopyrimidin-5-yl)-N-((5,6-difluoro-1H-benzo[d]imidazol-2-yl)methyl)-3-(trifluoromethyl)imidazo[1,2-b]pyridazin-8-amine], the pIC50 was greater than 7.00 in assay [1], greater than 7.00 in assay [2] (setting [5]), no less than 7.30 in assay [3] and greater than 6.52 in assay [4].
Consider `OCC1CN(c2cc(NCc3nc4cc(Cl)c(Cl)cc4[nH]3)c3ncc(C(F)(F)F)n3n2)C1` [Example 60, (1-(8-(((5,6-dichloro-1H-benzo[d]imidazol-2-yl)methyl)amino)-3-(trifluoromethyl)imidazo[1,2-b]pyridazin-6-yl)azetidin-3-yl)methanol], for which the negative logarithm of the IC50 (pIC50) is 6.30 to 7.00 in assay [1], greater than 7.00 in assay [2], 6.30 to 7.30 in assay [3] and 5.52 to 6.52 in assay [4].
With `FC(F)(F)c1cnc2c(NCc3cc4cccnc4[nH]3)cc(N3CCOCC3)nn12` [Example 84, N-((1H-pyrrolo[2,3-b]pyridin-2-yl)methyl)-6-morpholino-3-(trifluoromethyl)imidazo[1,2-b]pyridazin-8-amine], the pIC50 in assay [1] is greater than 7.00; in assay [2] it was greater than 7.00; in assay [3] it was 6.30 to 7.30; in assay [4] it was 5.52 to 6.52.
Take `CN1CC2CCC(C1)N2c1cc(NCc2nc3cc(Cl)c(Cl)cc3[nH]2)c2ncc(C(F)(F)F)n2n1` [Example 96, N-((5,6-dichloro-1H-benzo[d]imidazol-2-yl)methyl)-6-(3-methyl-3,8-diazabicyclo[3.2.1]octan-8-yl)-3-(trifluoromethyl)imidazo[1,2-b]pyridazin-8-amine]: the pIC50 in assay [1] was 6.30 to 7.00; in assay [2] (setting [5]) it was greater than 7.00; in assay [3] it was no less than 7.30; in assay [4], greater than 6.52.
The like results for `C[C@@H]1CN(c2cc(NCc3nc4cc(Cl)c(Cl)cc4[nH]3)c3ncc(C(F)(F)F)n3n2)C[C@H](C)N1` [Example 39, N-((5,6-dichloro-1H-benzo[d]imidazol-2-yl)methyl)-6-((3S,5R)-3,5-dimethylpiperazin-1-yl)-3-(trifluoromethyl)imidazo[1,2-b]pyridazin-8-amine] were, in that order, greater than 7.00, greater than 7.00, no less than 7.30 and greater than 6.52.
As to `FC(F)(F)c1cnc2c(NCc3nc4cc(Cl)c(Cl)cc4[nH]3)cc(N3CC(NC4CC4)C3)nn12` [Example 58, 6-(3-(cyclopropylamino)azetidin-1-yl)-N-((5,6-dichloro-1H-benzo[d]imidazol-2-yl)methyl)-3-(trifluoromethyl)imidazo[1,2-b]pyridazin-8-amine], the pIC50 in assay [1] is less than 6.30; in assay [2] (setting [5]) it was 6.30 to 7.00; in assay [3] it was no less than 7.30; in assay [4], greater than 6.52.
On to `Fc1ccc2nc(CNc3cc(N4CCC4)nn4c(C(F)(F)F)cnc34)[nH]c2c1F` [Example 15], for which the pIC50 in assay [1] is 6.30 to 7.00; in assay [2] (setting [5]), greater than 7.00; in assay [3], no less than 7.30; in assay [4], 5.52 to 6.52.
As to `C#Cc1cnc2c(NCc3nc4ccc(F)c(F)c4[nH]3)cc(N3CCOCC3)nn12` [Example 1, N-((6,7-difluoro-1H-benzo[d]imidazol-2-yl)methyl)-3-ethynyl-6-morpholinoimidazo[1,2-b]pyridazin-8-amine], the pIC50 in assay [1] was 6.30 to 7.00; in assay [2], greater than 7.00; in assay [3], 6.30 to 7.30; in assay [4], 5.52 to 6.52.
`N#CC1CN(c2cc(NCc3nc4ccc(Cl)c(Cl)c4[nH]3)c3ncc(C(F)(F)F)n3n2)C1` [Example 55, 1-(8-(((6,7-dichloro-1H-benzo[d]imidazol-2-yl)methyl)amino)-3-(trifluoromethyl)imidazo[1,2-b]pyridazin-6-yl)azetidine-3-carbonitrile]: the pIC50 in assay [1] is greater than 7.00; in assay [2] (setting [5]), greater than 7.00; in assay [3] it was 6.30 to 7.30; in assay [4], 5.52 to 6.52.
Turning to `Cc1cc(C)n2cc(CNc3cc(N4CCOCC4)nn4c(C(F)(F)F)cnc34)nc2n1` [Example 88, N-((5,7-dimethylimidazo[1,2-a]pyrimidin-2-yl)methyl)-6-morpholino-3-(trifluoromethyl)imidazo[1,2-b]pyridazin-8-amine], the pIC50 in assay [1] was greater than 7.00; in assay [2], greater than 7.00; in assay [3], 6.30 to 7.30; in assay [4], 5.52 to 6.52.
As for `CC(C)(O)C1CN(c2cc(NCc3nc4cc(Cl)c(Cl)cc4[nH]3)c3ncc(C(F)(F)F)n3n2)C1` [Example 48, 2-(1-(8-(((5,6-dichloro-1H-benzo[d]imidazol-2-yl)methyl)amino)-3-(trifluoromethyl)imidazo[1,2-b]pyridazin-6-yl)azetidin-3-yl)propan-2-ol], the pIC50 in assay [1] was less than 6.30; in assay [2] (setting [5]) it was 6.30 to 7.00; in assay [3], 6.30 to 7.30; in assay [4], greater than 6.52.
